# From US10914722B2, “Sensor array and apparatus for simultaneous observation of tissue electrophysiology, contractility, and growth” (Lawrence Livermore National Security, LLC, priority 2017, dated 2021)
# Tested on: human induced pluripotent stem cell-derived cardiomyocytes (iPS-CMs)
# Assay: simultaneous field potential (MEA), impedance (IDE) and optical recording of cardiac tissue pre-/post-drug exposure and after wash-out
# Assay type: cell-based
# Excerpt: Measurements were repeated once more after washing the culture to flush the blebbistatin from the system. FIGS. 7A-7C show the field potential (left) and corresponding impedance changes (right) prior to exposure to blebbistatin (FIG. 7A), after exposure to blebbistatin (FIG. 7B) and following flushing of blebbistatin from the system (FIG. 7C).
# Prior to compound addition, the tissue beat spontaneously and rhythmically at a rate of 14 bpm, as shown from both the FP profile and impedance profile of FIG. 7A.
# Human iPS-CMs were purchased from Cellular Dynamics International (Madison, Wis.). Cells were stored in liquid nitrogen before use. Prior to cell seeding, device culture chambers were sterilized with 70% ethanol, rinsed with autoclaved water, then incubated overnight with 40 μg/mL fibronectin (Sigma-Aldrich, St Louis, Mo.) at 37° C. Cells were seeded at a density of 120K cells/cm2 and kept in an incubator at 37° C. and 5% CO2. Media was exchanged 4 hrs after seeding, then every 48 hours subsequently.
# The MEA was connected via electrical connector(s), preferably OMNETICS™ connectors to an AlphaLab SnR multi-channel recording system (Alpha Omega, Alpharetta, Ga.) to record voltages as a function of time across all 16 electrodes of the MEA. Offline analysis of temporal differences between the 16 electrodes when voltage spikes occur generates an activation map. The activation map illustrates FP spatial propagation in the cardiac tissue monolayer across the surface area of the device.
# For measuring cardiac contraction, high-speed impedance time recording was performed using a Keysight E4990A Impedance Analyzer (Keysight Technologies Inc., Santa Rosa, Calif.) and controlled using custom LabVIEW software (National Instruments, Austin, Tex.). For each device, impedance was measured at multiple frequencies between 5 kHz and 200 kHz to determine the frequency range that gives the highest signal-to-noise ratio.
# Norepinephrine and blebbistatin were purchased from Sigma-Aldrich (St Louis, Mo., USA). Both drugs were dissolved in 0.1% dimethyl sulfoxide and stored at −20° C. Drugs were diluted to desired concentrations in cell media immediately before use. Prior to drug exposure, pre-drug electrophysiology and contraction data of the cardiac tissues on a device were collected for five minutes. Next, cell media was removed from the chamber on the device, drug was added and device was incubated at 37° C. and 5% CO2 for 15 minutes. Recording was again started with the drug. Afterwards, the drug solution was removed and the culture chamber was rinsed three times with cell media, incubated at 37° C. and 5% CO2 for another 15 minutes before performing drug wash-out measurements.
# [1] = after incubation with 10 μM, FIG. 7B
structure (smiles),measurement,setting,value
Cc1ccc2c(c1)C(=O)C1(O)CCN(c3ccccc3)C1=N2 (stereo not shown) [blebbistatin],action potential pattern (MEA data),[1],not affected
same,"impedance recording (contraction signal, IDE)",[1],flat baseline signal
same,tissue contraction observed under an optical microscope,"after incubation with 10 μM, pre-drug spontaneous beating at 14 bpm, FIG. 7B",static
same,tissue contractility after washing out (impedance peaks and optical observation),"wash-out after 10 μM exposure, FIG. 7C",restored the tissue contractility
